For assay [1], the system named is prostatic cell line DU145. Kind of assay: MTT cell proliferation index, DU145. Type of assay: cell-based, human. The conditions noted are these: for Cell proliferation index: control = 100%, MTT after 48 hours. The procedure:
The effects of the PACE4 inhibitors on cell proliferation were evaluated. MTT assay was used to evaluate the effects of PACE4 inhibitors on cell proliferation. MTT (3-(4,5-Dimethylthiazol-2-yl)-2,5-diphenyltetrazolium bromide) assay is a standard colorimetric assay for measuring cellular proliferation. Yellow MTT is reduced to purple formazan in the mitochondria of living cells. This reduction takes place only when mitochondrial reductase enzymes are active. Conversion is directly related to the number of viable cells. The MTT assay is quantitative and more sensitive than viability using trypan blue and can also be adapted to 96 well formats, whereas trypan blue tests must be read individually. Because the MTT assay requires less cell manipulation than [^3H]thymidine incorporation assays (no cell harvesting or medium changes are necessary), the possibility of error is reduced and the standard deviation values are lower. […] Other assays also known can be used to determine the effects of an inhibitor on the proliferation of a cell.
The index of cellular proliferation of cells treated with the ML and acetyl-ML (CH3CO—NH-[…]-CONH2 (SEQ ID NO: 5), see Table 2) peptides were measured using the colorimetric MTT assay (thiazolyl blue tetrazolium bromide; Sigma-Aldrich). Briefly, cells were seeded in 96-well plate (BD Biosciences) in triplicate with 100 μl of a 3.5×10^4 cells/ml cell suspension in complete growth medium. The following day, cells were carefully washed twice with PBS and media were replaced with 100 μl of either RPMI or conditioned growth media. Conditioned growth medium preparation consists in 1.2×10^5 cells seeded in 6-well plates with complete growth media. The next day, cells are washed twice with PBS and the media are replaced with 1 ml RPMI growth medium. 48 hours later, the conditioned media are collected, filtered through […] syringe filter units and incubated on different cell lines.
48 hours later, 20 μl of a MTT solution (5 mg/ml in PBS 1×) was added to each well for 4.5 h at 37° C./5% CO2. The media was then discarded and the cells were solubilized with 100 μl isopropanol/0.04 N HCl solution. The absorbance was measured at a wavelength of 550 nm with a reference at 650 nm in microplate reader (SpectraMax190™; Molecular Devices).

For assay [2], the system named is DU145 cells implanted subcutaneously. Kind of assay: DU145 xenograft tumor growth in nude mice. In kind it is in vivo, Nu/Nu mice. To be noted: intra-tumoral 30 mg/kg once every 2 days, start at 50 mm^3 twenty days after implantation; vehicle control 160 mm^3. The text has this: To test the effects of PACE4 inhibitors in vivo, a nude mouse model was used in order to validate PACE4's role in tumor progression within an integrated system. […] The genetic basis of the nude mouse mutation is a disruption of the Foxn1 gene. The nude mouse can receive many different types of tissue and tumor grafts, as it mounts no rejection response. These xenografts are commonly used to test new methods of treating tumors. Nude mice were used to test the tumor progression of control DU145 cells compared to PACE4 silenced DU145 cells (clone 4-2) (FIG. 11). Control tumor received vehicle (DMSO) injections. Control tumor continued their growth pattern, reaching an average size of 160 mm^3, while treated tumors only reached a size of 75 mm^3 (FIG. 11A). Consequently, PACE4 inhibition by the specific inhibitors described herein reduces tumors growth. The nude mouse model is well known and extensively tested (Naomoto et al., 1987, J. Cancer Res. Clin. Oncol., 113: 544-549; Taetle et al., 1987 Cancer Treat. Rep. 71: 297-304).
DU145 cells were implanted subcutaneously (sc) at two sites on the backs of Nu/Nu mice, which lack an immune system. […] The genetic basis of the nude mouse mutation is a disruption of the Foxn1 gene. The nude mouse can receive many different types of tissue and tumor grafts, as it mounts no rejection response. […]

*: point of attachment. Cholyl = C[C@H](CCC(=O)*)[C@H]1CC[C@H]2[C@@H]3[C@H](O)C[C@@H]4C[C@H](O)CC[C@]4(C)[C@H]3C[C@H](O)[C@]12C

Regarding “Cholyl-NH-LLLLRVKR-NH2 (Cholyl-LLLLRVKR-NH2) [cholyl ML]”, the “effect on cell proliferation index, in words” value in assay [1] (DU145) is recorded as “more potent effects than ML or acetyl-ML peptides”. For the same substance, the Cell proliferation index was 86.65% in assay [1] (DU145, 1 μM peptide); 38.70% in assay [1] (DU145, 10 μM peptide); 4.36% in assay [1] (DU145, 100 μM peptide). Besides, the “average tumor size reached” value in assay [2] is reported as 75 mm^3.
